Source: ChEMBL document CHEMBL1142326, “2-Amino-N-pyrimidin-4-ylacetamides as A2A receptor antagonists: 1. Structure-activity relationships and optimization of heterocyclic substituents” (J Med Chem, 2008)

Experiments:
Adenosine receptor A2a [1] = target: T1, Adenosine receptor A2a (Homo sapiens, UniProt P29274); assay: Displacement of [3H]ZM241385 from human adenosine A2A receptor expressed in HEK293 cells; type: cell-based
Adenosine receptor A1 = target: T2, Adenosine receptor A1 (Homo sapiens, UniProt P30542); assay: Displacement of [3H]DPCPX from human adenosine A1 receptor expressed in HEK293 cells; type: cell-based
T2 sequence (P30542 whole entry): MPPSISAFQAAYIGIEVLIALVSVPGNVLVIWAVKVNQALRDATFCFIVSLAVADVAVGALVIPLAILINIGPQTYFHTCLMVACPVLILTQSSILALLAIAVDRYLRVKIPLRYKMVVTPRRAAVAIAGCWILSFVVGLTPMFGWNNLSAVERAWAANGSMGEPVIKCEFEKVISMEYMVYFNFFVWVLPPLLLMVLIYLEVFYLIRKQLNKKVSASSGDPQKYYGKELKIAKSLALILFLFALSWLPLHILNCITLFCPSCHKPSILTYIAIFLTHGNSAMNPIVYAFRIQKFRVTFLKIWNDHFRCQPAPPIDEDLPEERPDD

Adenosine receptor A2a [2] = target: T1, Adenosine receptor A2a; assay: Antagonist activity at human adenosine A2A receptor by cAMP assay; type: functional
Cytochrome P450 3A4 = Cytochrome P450 3A4 (Homo sapiens, UniProt P08684); assay: Inhibition of CYP3A4; type: ADME
Chain of Cytochrome P450 3A4 (P08684 whole entry): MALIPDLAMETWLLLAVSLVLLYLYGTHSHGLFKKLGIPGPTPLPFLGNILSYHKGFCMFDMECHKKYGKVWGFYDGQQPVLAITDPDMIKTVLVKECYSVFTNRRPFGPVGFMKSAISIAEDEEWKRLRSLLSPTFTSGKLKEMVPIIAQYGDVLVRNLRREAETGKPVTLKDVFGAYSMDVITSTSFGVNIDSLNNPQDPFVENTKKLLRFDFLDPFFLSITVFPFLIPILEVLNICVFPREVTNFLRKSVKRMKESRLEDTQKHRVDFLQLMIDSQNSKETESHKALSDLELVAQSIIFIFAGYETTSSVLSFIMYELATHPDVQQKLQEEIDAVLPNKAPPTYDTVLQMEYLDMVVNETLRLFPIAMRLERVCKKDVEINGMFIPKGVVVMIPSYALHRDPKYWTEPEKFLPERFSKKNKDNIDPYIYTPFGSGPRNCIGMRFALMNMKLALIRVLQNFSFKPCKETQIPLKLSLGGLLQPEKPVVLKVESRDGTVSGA

T1 sequence (P29274 whole entry): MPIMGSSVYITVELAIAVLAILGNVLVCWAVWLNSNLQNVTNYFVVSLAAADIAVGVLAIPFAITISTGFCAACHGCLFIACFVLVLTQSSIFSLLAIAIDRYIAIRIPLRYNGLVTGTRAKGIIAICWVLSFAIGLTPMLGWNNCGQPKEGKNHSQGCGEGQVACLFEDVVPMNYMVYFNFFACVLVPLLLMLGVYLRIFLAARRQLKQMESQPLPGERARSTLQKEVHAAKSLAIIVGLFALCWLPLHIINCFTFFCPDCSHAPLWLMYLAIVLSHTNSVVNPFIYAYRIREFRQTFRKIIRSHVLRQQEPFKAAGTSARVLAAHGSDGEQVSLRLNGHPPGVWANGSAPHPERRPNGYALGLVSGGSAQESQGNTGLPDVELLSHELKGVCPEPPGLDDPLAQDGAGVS

Row | Ki (Adenosine receptor A2a [1]) [nM] | Ki (Adenosine receptor A1) [nM] | IC50 (Adenosine receptor A2a [2]) [nM] | SMILES | IC50 (Cytochrome P450 3A4) [µM]
1 | 1000 | > 10000 | – | Cc1cc(C)n(-c2nc(NC(=O)CN3CCN(C)CC3)cc(-c3cnco3)n2)n1 | –
2 | 12 | 850 | – | Cc1cc(C)n(-c2cc(NC(=O)CN3CCN(C)CC3)nc(-c3ccc(C)o3)n2)n1 | –
3 | – | – | 103 | CN1CCN(CC(=O)Nc2cc(-c3nccs3)nc(-c3ccco3)n2)CC1 | –
4 | 131 | 4200 | – | CN1CCN(CC(=O)Nc2cc(-n3cccn3)nc(-n3cccn3)n2)CC1 | –
5 | 135 | 850 | – | Cc1ccc(-c2nc(NC(=O)CN3CCN(C)CC3)cc(-n3cccn3)n2)o1 | –
6 | 190 | > 10000 | – | Cc1cc(C)n(-c2nc(NC(=O)CN3CCN(C)CC3)cc(-c3ocnc3C)n2)n1 | –
7 | 51 | 720 | – | Cc1ccc(-c2nc(NC(=O)CN3CCN(C)CC3)cc(-c3nccs3)n2)o1 | –

Second part, the compound before the results:

Row | SMILES | Ki (Adenosine receptor A2a [1]) [nM] | Ki (Adenosine receptor A1) [nM] | IC50 (Adenosine receptor A2a [2]) [nM] | IC50 (Cytochrome P450 3A4) [µM]
8 | Cc1cc(C)n(-c2cc(NC(=O)CN3CCN(C)CC3)nc(-c3ccccn3)n2)n1 | 25.5 | 4400 | – | –
9 | CN1CCN(CC(=O)Nc2cc(-n3cccn3)nc(-c3ccccn3)n2)CC1 | 53.4 | 930 | – | –
10 | CN1CCN(CC(=O)Nc2cc(-n3cccn3)nc(-c3nccs3)n2)CC1 | 17 | 850 | – | –
11 | CN1CCN(CC(=O)Nc2cc(-c3ccccn3)nc(-c3cccs3)n2)CC1 | 24 | 389 | – | –
12 | Cc1cc(C)n(-c2nc(NC(=O)CN3CCN(C)CC3)cc(-c3nccs3)n2)n1 | 27 | 1700 | – | –
13 | Cc1ccc(-c2nc(NC(=O)CN3CCN(C)CC3)cc(-n3nccc3C)n2)o1 | 14 | 390 | – | –
14 | Cc1cc(C)n(-c2cc(NC(=O)CN3CCN(C)CC3)nc(-c3nccs3)n2)n1 | 9 | 2000 | – | 13
